Data as given in patent US11208412B2 (DAEGU-GYEONGBUK MEDICAL INNOVATION FOUNDATION, priority 2017, dated 2021).

Assays:
Assay in all cases: Kinase selectivity, DiscoverX scanMAX Kinase assay panel (% control)
Type in all cases: binding
[1] = biological target: T1, kinases of the scanMAX Kinase assay panel (Homo sapiens, UniProt O75385); settings: kinase ULK1; 1 uM in DMSO
T1 construct: purchased DiscoverX Co. (contract measurement) scanMAX Kinase assay panel
T1 sequence (O75385 1-1050): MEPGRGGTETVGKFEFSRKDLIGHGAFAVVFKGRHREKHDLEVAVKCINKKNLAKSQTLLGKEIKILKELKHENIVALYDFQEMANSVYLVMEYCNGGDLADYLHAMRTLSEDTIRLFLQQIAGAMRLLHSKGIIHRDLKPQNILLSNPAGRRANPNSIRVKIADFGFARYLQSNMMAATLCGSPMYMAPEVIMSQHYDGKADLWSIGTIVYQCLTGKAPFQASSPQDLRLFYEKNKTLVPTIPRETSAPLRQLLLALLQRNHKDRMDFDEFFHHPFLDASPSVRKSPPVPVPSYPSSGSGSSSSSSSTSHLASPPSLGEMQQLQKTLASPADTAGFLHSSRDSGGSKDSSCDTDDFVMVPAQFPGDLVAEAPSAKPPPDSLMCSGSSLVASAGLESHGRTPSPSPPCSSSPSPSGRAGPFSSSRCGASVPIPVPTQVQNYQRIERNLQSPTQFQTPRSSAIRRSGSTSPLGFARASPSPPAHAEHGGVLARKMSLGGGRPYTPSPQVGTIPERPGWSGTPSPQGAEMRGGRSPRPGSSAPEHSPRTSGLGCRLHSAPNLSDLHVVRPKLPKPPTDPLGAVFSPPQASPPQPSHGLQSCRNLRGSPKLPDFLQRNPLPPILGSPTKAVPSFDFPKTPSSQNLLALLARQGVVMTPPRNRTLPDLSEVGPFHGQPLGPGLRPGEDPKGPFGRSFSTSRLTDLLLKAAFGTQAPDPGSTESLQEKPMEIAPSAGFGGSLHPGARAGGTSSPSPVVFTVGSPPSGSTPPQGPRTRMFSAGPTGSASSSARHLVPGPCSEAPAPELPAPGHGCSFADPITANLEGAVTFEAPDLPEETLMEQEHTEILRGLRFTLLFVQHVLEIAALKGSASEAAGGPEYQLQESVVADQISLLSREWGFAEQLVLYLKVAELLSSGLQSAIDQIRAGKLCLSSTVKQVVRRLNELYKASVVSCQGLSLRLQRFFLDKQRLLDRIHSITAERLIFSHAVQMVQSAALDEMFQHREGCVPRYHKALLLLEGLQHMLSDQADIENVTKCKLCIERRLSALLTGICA
In short: (§1)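 A 1 uM DMSO solution of compound was applied across the panel kinases, and results were expressed as % control relative to DMSO (100%) and a positive control (0%).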

[2] = biological target: T2, kinases of the scanMAX Kinase assay panel (Homo sapiens, UniProt Q14012); settings: CAMK1; 1 uM
T2 construct: purchased DiscoverX Co. (contract measurement) scanMAX Kinase assay panel
T2 sequence (Q14012 whole entry): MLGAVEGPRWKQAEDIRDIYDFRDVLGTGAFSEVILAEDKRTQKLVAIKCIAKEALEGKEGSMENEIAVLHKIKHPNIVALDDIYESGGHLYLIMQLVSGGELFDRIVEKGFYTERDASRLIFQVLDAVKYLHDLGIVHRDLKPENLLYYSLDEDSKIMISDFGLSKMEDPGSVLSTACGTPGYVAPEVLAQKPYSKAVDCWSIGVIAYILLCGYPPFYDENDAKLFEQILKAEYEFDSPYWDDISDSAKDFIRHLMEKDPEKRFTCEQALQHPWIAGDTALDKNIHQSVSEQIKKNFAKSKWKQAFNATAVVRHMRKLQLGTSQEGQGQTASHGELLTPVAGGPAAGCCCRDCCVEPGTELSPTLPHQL
In short: as §1

[3] = biological target: T3, kinases of the scanMAX Kinase assay panel (Homo sapiens, UniProt P10721, D816H); settings: KIT(D816H); 1 uM
T3 construct: purchased DiscoverX Co. (contract measurement) scanMAX Kinase assay panel
T3 sequence (P10721 26-976 D816H): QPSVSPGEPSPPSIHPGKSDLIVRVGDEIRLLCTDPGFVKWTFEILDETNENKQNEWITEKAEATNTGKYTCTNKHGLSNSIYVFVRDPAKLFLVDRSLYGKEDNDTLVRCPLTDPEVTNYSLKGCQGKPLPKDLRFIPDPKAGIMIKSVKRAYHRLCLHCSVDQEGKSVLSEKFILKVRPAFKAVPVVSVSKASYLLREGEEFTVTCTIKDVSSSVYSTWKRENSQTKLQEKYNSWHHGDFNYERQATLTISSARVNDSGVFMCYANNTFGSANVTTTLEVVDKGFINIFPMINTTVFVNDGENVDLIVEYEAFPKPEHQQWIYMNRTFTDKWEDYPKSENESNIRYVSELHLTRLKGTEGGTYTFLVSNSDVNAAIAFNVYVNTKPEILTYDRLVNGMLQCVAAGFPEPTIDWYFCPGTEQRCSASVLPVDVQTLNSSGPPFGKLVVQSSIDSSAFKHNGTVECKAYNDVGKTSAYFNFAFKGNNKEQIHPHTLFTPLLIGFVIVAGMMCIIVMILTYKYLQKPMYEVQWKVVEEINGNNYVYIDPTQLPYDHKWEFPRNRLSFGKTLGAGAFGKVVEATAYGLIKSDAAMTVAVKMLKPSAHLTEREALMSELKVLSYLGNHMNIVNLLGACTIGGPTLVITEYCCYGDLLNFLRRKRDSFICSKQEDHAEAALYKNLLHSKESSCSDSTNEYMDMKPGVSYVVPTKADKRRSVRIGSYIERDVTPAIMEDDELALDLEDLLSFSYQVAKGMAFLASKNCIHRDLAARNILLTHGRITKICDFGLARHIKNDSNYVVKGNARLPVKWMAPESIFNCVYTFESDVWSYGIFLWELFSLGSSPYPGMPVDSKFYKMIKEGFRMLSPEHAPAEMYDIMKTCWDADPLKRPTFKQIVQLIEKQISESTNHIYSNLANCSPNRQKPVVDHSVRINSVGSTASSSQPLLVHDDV
In short: as §1

[4] = biological target: T4, kinases of the scanMAX Kinase assay panel (Homo sapiens, UniProt Q16584); settings: MLK3; 1 uM
T4 construct: purchased DiscoverX Co. (contract measurement) scanMAX Kinase assay panel
T4 sequence (Q16584 whole entry): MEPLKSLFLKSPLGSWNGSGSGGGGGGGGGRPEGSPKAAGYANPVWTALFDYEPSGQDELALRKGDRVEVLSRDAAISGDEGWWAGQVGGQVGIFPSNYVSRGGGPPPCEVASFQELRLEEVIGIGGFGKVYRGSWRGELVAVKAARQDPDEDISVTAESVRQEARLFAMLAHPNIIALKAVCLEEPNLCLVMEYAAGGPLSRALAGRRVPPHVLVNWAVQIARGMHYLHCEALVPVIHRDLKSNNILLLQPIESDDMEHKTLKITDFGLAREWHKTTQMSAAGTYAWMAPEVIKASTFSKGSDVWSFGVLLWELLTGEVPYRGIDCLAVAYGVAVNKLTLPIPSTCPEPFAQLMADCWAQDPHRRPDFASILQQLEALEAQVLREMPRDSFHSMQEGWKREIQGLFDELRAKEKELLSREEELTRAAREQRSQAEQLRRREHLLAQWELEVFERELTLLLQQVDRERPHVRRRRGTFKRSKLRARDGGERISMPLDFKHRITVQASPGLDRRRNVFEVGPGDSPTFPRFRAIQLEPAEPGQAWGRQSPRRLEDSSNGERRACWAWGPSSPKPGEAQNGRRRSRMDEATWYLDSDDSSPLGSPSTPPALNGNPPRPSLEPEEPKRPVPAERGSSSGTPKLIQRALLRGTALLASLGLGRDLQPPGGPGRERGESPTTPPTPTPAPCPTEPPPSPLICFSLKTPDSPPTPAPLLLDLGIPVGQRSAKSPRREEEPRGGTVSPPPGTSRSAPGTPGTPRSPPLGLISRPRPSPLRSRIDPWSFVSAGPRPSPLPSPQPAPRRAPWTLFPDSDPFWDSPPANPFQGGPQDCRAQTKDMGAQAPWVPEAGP
In short: as §1

[5] = biological target: T5, kinases of the scanMAX Kinase assay panel (Homo sapiens, UniProt P48736); settings: PIK3CG; 1 uM
T5 construct: purchased DiscoverX Co. (contract measurement) scanMAX Kinase assay panel
T5 sequence (P48736 whole entry): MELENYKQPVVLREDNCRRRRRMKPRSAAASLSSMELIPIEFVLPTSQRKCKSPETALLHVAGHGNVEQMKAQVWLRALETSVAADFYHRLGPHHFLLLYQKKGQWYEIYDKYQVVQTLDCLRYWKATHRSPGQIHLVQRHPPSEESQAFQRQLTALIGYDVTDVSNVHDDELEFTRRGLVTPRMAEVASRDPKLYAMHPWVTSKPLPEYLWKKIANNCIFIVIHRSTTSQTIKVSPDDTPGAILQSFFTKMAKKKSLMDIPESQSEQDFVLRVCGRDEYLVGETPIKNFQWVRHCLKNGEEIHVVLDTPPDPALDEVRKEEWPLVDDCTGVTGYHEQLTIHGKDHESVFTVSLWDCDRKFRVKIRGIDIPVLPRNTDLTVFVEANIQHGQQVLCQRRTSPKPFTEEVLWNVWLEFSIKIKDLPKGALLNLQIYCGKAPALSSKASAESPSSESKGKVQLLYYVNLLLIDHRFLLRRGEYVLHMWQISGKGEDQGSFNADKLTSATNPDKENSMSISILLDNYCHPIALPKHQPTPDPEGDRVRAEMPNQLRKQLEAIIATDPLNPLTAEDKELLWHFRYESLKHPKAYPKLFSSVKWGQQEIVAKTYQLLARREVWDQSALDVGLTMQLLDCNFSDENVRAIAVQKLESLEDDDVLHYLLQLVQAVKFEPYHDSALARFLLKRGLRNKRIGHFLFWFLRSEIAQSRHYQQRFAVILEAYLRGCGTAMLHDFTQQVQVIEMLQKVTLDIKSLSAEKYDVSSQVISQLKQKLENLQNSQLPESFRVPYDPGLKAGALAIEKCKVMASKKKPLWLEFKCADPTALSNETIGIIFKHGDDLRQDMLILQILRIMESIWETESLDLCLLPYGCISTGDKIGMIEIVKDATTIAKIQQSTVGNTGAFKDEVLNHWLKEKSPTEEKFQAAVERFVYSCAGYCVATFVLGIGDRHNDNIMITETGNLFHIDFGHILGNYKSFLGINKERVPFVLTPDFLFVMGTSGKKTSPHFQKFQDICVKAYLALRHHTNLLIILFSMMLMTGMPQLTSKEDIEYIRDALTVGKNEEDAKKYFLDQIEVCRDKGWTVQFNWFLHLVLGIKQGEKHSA
In short: as §1

[6] = biological target: T6, kinases of the scanMAX Kinase assay panel (Homo sapiens, UniProt Q12851); settings: MAP4K2; 1 uM
T6 construct: purchased DiscoverX Co. (contract measurement) scanMAX Kinase assay panel
T6 sequence (Q12851 1-820): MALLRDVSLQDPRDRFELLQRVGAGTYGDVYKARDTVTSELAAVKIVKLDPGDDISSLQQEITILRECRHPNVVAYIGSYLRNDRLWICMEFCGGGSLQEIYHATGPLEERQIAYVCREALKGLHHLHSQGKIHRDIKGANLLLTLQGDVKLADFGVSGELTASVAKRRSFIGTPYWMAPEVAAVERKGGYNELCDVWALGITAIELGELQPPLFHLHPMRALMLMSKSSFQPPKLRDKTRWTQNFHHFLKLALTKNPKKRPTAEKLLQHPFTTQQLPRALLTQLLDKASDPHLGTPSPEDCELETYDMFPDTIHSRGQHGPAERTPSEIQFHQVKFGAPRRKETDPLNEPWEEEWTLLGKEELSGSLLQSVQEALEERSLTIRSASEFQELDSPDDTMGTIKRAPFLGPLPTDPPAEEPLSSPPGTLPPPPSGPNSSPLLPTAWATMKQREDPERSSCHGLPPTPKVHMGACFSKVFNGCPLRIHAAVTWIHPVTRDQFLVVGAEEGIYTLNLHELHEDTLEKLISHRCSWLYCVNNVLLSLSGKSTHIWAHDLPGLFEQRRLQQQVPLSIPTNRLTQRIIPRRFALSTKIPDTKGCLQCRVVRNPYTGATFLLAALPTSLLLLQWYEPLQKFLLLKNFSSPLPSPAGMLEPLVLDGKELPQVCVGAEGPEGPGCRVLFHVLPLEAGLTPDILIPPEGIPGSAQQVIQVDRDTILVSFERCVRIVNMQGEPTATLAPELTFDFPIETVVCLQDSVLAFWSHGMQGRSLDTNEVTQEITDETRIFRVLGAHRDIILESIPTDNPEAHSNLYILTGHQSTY
In short: as §1

[7] = biological target: T7, kinases of the scanMAX Kinase assay panel (Homo sapiens, UniProt P49761); settings: CLK3; 1 uM
T7 construct: purchased DiscoverX Co. (contract measurement) scanMAX Kinase assay panel
T7 sequence (P49761 whole entry): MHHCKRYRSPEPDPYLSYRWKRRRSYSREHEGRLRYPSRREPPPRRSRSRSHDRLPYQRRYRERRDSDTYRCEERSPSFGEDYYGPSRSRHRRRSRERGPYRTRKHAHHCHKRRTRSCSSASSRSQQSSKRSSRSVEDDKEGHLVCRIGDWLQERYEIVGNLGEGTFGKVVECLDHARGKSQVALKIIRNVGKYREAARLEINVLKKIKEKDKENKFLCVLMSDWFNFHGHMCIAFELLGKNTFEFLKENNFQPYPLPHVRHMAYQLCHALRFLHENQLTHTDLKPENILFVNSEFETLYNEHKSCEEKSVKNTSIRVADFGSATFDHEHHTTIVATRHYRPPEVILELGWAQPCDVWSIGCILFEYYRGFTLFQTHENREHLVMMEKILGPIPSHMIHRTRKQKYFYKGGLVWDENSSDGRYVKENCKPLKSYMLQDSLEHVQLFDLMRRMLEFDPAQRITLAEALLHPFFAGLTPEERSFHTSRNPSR
In short: as §1

| SMILES | remaining binding at 1 µM [1] [%] | remaining binding at 1 µM [2] [%] | remaining binding at 1 µM [3] [%] | remaining binding at 1 µM [4] [%] | remaining binding at 1 µM [5] [%] | remaining binding at 1 µM [6] [%] | remaining binding at 1 µM [7] [%] |
| --- | --- | --- | --- | --- | --- | --- | --- |
| CCNc1nc(Nc2ccc(C(=O)N3CCC(N4CCOCC4)CC3)cc2OC)nc2[nH]cc(C(F)(F)F)c12 [Example 104, (4-((4-(ethylamino)-5-(trifluoromethyl)-7H-pyrrolo[2,3-d]pyrimidine-2-yl)amino)-3-methoxyphenyl)(4-morpholinopiperidine-1-yl)methanone] | 100 | 72 | 100 | 86 | 87 | 69 | 4 |
| CC1(Nc2nc(Nc3cnn([C@H]4CCN(C5COC5)C[C@@H]4F)c3Cl)nc3[nH]cc(C#N)c23)CC1 [Example 52, 2-((5-chloro-1-((3S,4S)-3-fluoro-1-(oxetane-3-yl)piperidine-4-yl)-1H-pyrazole-4-yl)amino)((1-methylcyclopropyl)amino)-7H-pyrrolo[2,3-d]pyrimidine-5-carbonitrile] | 20 | 6.8 | 8.1 | 3.1 | 8.5 | 1.2 | 27 |
| CNc1nc(Nc2ccc(C(=O)N3CCOCC3)cc2OC)nc2[nH]cc(C#N)c12 [Example 1, 2-((2-methoxy-4-(morpholine-4-carbonyl)phenyl)amino)-4-(methylamino)-7H-pyrrolo[2,3-d]pyrimidine-5-carbonitrile] | 75 | 59 | 77 | 78 | 76 | 75 | 70 |
